Measurements from patent US12049483B2, “Selective and noncovalent inhibitors of oncogenic RAS mutants” (New York University, priority 2020, dated 2024).
Entries after “also recorded” stand apart in the source; their conditions may differ.

Tests used:
KRAS(WT) = target: T1, KRAS(WT) (Homo sapiens, UniProt P01116); test: Yeast display binding titration, KRAS(WT); settings: either nucleotide-bound form
T1 construct: KRAS4B residues 1-174 containing G12C, G12V, G12D, G13D, Q61L, WT; made in house; host or cells: E. coli BL21(DE3) with pBirA
Description: (§1) Nucleotide exchange of RAS. Purified RAS proteins used in binding experiment and crystallization were prepared by diluting stock protein (typically containing 20-250 μM RAS) 25 times with 20 mM Tris-Cl buffer pH 7.5 containing 5 mM EDTA, 0.1 mM DTT and 1 mM final concentration of a nucleotide (GDP or GTPγS). Samples were incubated at 30° C. for 30 minutes. MgCl2 was then added to the sample at a final concentration of 20 mM and the solution was further incubated on ice for at least 5 minutes prior to use.
(§2) Monobody development. General procedures for the development of monobodies against purified protein targets have been described previously. After four rounds of phage display library selection using biotinylated KRAS(G12C) at concentrations of 100 nM, 100 nM, 50 nM and 50 nM, the genes encoding monobodies from the enriched phage pool were transferred to a yeast display vector, which was used to construct yeast-display libraries. The yeast display libraries were sorted using a Bio-Rad S3e fluorescence-activated cell sorter or a […] II cell sorter (BD Biosciences). […] Single clones were then screened for selective binding to RAS mutants. The expression of monobodies on the surface of yeast cells were detected using mouse anti-VS and anti-mouse IgG-FITC conjugate. Target binding was detected with neutravidin Dylight650. Yeast cells were analyzed using an iQue flow cytometer (Sartorius). […]

[1] = test system: KRAS mutant and control cell lines; test: Cell proliferation assay of dox-inducible monobody-expressing cell lines; assay type: cell-based; settings: KRAS(G12C) (H358 and H23) and KRAS(G12V) (PATU8902 and H441) cell lines
Description: Cell proliferation assay. […] Cells were then cultured in the presence of 1 μg/mL doxycycline for the entire duration of experiment (7-8 days) and subcultured into a new 12 well or 24 well plate every 2 days. […] The mixed culture was sampled periodically and the ratio between monobody expressing cells (mVenus and GFP positive) and non-expressing cells was determined using flow cytometry analysis (FIG. 11).

KRAS(G12V) = target: T2, KRAS(G12V) (Homo sapiens, UniProt P01116, G12V); test: BLI binding to KRAS(G12V); settings: nucleotide state GTPγS
T2 construct: KRAS4B residues 1-174 containing G12C, G12V, G12D, G13D, Q61L, WT; His6 (N, cleaved yes); Avi-tag (N, cleaved yes); made in house; host or cells: E. coli BL21(DE3)
Excerpt: Protein expression and purification. All proteins used for monobody development and binding assays, including RAS constructs (KRAS4B residues 1-174 containing G12C, G12V, G12D, G13D, Q61L, WT, NRAS(WT), and HRAS(WT)), Monobodies, and RAF-1 RBD (residues 51-131) were produced with an N-terminal tag containing His6, Avi-tag for biotinylation and a TEV protease recognition site using the pHBT vector. The proteins were produced in E. coli BL21(DE3). To produce biotinylated proteins, E. coli BL21(DE3) with the pBirA plasmid was used as the host and grown in the presence of 50 μM of biotin. Expressed proteins were purified using Ni-Sepharose columns (GE Healthcare) via gravitational flow, followed by dialysis in Tris buffered saline (TBS, 50 mM Tris-Cl pH7.5 containing 150 mM NaCl) for non-RAS proteins. TBS containing 20 mM MgCl2 and 0.5 mM DTT was used for RAS proteins. Samples were further purified using a Superdex 75 size exclusion column on AKTA Pure systems (GE Healthcare). HRAS(WT) and HRAS(G12C) (residues 1-166) used for crystallization was produced as a fusion protein with His6 and yeast SUMO at the N terminus using an in-house vector described previously. […]
Biolayer interferometry (BLI) analysis. […] BLI signals were analyzed using Octet Data Analysis software (Molecular Devices).

NRAS(WT) = target: T3, NRAS(WT) (Homo sapiens, UniProt P01111); test: Yeast display binding titration, NRAS(WT); settings: GTPγS and GDP bound states
T3 construct: made in house; host or cells: E. coli BL21(DE3) with pBirA
T3 sequence (P01111 whole entry): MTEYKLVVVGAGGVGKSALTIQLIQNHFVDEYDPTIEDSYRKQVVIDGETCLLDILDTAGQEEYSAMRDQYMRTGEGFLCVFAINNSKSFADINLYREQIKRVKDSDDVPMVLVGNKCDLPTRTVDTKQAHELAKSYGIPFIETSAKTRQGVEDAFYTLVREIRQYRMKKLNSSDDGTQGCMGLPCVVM
Description: as §1, §2

binding (KRAS(WT)): did not detectably bind | koff (KRAS(G12V)): 0.007 s⁻¹
Sequence: VSSVPTKLEVVAATPTSLLISWDAPAVTVFFYVITYGETGHGVGAFQAFKVPGSKSTATISGLKPGVDYTITVYARGYSKQGPYKPSPISINYRT [12VC1]
proliferation [1]: potently inhibited | binding (NRAS(WT)): no binding; also recorded: did not detectably bind
